The results in this text go back to patent publication US11530213B2, “Naphthyridinone derivatives and their use in the treatment of arrhythmia” (NOVARTIS AG, priority 2016, dated 2022).

Structures are written as SMILES.

Sequence of GIRK1/4 (P48549 whole entry): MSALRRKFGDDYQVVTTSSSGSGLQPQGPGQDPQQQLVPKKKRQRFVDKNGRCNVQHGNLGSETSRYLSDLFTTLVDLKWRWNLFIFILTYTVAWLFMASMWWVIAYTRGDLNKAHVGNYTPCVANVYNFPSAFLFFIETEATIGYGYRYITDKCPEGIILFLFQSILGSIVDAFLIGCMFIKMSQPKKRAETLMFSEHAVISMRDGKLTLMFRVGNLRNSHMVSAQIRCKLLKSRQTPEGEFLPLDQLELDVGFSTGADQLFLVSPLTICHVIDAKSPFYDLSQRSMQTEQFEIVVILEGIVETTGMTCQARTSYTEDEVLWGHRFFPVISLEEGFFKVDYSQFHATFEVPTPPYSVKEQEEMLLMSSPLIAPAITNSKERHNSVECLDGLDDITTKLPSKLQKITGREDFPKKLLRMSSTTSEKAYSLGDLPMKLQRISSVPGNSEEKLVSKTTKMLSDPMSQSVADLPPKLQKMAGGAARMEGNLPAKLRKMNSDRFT
Sequence of GIRK1/4 (P48544 whole entry): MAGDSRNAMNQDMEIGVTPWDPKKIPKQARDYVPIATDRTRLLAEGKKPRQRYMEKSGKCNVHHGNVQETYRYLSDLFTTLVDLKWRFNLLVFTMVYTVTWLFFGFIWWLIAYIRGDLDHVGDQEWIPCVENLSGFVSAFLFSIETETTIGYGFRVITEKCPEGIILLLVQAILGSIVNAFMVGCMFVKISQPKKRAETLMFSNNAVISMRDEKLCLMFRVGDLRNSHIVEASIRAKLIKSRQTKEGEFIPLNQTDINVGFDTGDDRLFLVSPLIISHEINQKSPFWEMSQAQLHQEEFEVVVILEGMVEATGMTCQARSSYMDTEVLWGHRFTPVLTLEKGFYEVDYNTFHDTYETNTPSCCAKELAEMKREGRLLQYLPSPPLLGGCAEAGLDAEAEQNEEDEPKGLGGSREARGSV

For the assay, the target named is GIRK1/4 (Homo sapiens (Human), UniProt P48544+P48549). The assay can be described thus: GIRK1/4 inhibition, Quattro (IonWorks) population patch clamp, inward potassium current in GIRK 1/4 HEK293 stable cells (test assay No. 1). The following applies: percentage of current inhibition normalized to DMSO-only control. In kind it is cell-based. On the procedure:
The activity of a compound according to the present invention can be assessed by the following in vitro method. • 1. Buffers: • a. External buffer: 10 mM NaCl, 50 mM Na Gluconate, 80 mM K Gluconate, 1.8 mM CaCl2, 1 mM MgCl2, 10 mM HEPES, 10 mM Glucose, pH 7.4; osmolality […]. • b. Internal buffer: 30 mM KCl, 100 mM K Gluconate, 1 mM MgCl2, 10 mM HEPES, 1 mM EGTA, 10 mM NaCl, pH 7.2; osmolality […]. • 2. Compounds: • a. Prepare seven-fold compound dilution series (10 mM to 20 uM) in 100% DMSO, in 384-well polypropylene plates. • b. Propafenone (Sigma Aldrich, catalog number P4670) is used as a positive control and DMSO for neutral control • c. Resuspend 1 ul of compounds in DMSO into 65.7 ul external buffer in 384-well polypropylene plate and load into Plate 1 section of Molecular Devices Quattro • 3. Quattro setup: • a. Load 384-well Population Patch Plate (Molecular Devices #9000-0902) into Quattro • b. Fill Quattro F-soak trough with 20% DMSO and 50% EtOH • c. Fill Quattro buffer trough with external buffer • d. Attach internal buffer flask to Quattro internal buffer tubing • e. Attach PBS (Phosphate Buffered Saline, minus Ca^++ and Mg^++, pH7.4) bottle to F-head & E-head wash on Quattro • 4. Antibiotic: • a. Resuspend 5.6 mg amphotericin B (Sigma Aldrich, catalog number A2411) in 175 ul DMSO • b. Add the resulting solution to 50 ml internal buffer, mix and attach to antibiotic tubing port on Quattro • 5. Cells: • a. Use GIRK 1/4 HEK293 stable cells (obtained from ChanTest, 14656 Neo Parkway, Cleveland, Ohio 44128) grown to […] confluency in the following cell culture medium: DMEM containing 10% (v/v) Fetal Bovine Serum, Penicillin/Streptomycin (at “1×” concentration from a 100× stock), 0.5 mg/ml G418 and 0.1 mg/ml Zeocin. • b. Wash cells with PBS (minus Ca^++ and Mg^++), Detach cells using Detachin (Genlantis, 11011 Torreyana, San Diego, Calif. 92121), and resuspend in external buffer (5 ml final volume at 2.0-2.1×10^6 cells/ml) • c. Load into cell trough of Quattro • 6. Assay Protocol: • Quattro is controlled using IonWorks v2 software to perform the following steps: • a. Add 3.5 ul cells plus 3.5 ul external buffer to wells of Quattro Patch Plate • b. Circulate amphotericin B and internal buffer onto cells • c. Apply the following voltage protocol: Pulse 1: 15 mV for 300 milliseconds (ms), followed by Pulse 2: −120 mV for 400 ms, then Pulse 3: −15 mV for 400 ms, and finally Pulse 4: −120 mV to 40 mV over 500 ms (this is a voltage ramp). • d. Measure magnitude of inward potassium current at time point between 1200-1220 ms from start of Pulse 1 (i.e. during the voltage ramp phase). • e. Add 3.5 ul of diluted compounds (or DMSO) to wells and repeat steps c-d (final compound concentrations are 50 uM to 0.1 uM, for potent compounds 0.5 uM to 0.01 uM and each concentration is tested in quadruplicate—i.e. in 4 separate wells). • f. The difference between current magnitude pre vs. post-compound gives a measure of GIRK1/4 inhibition. • 7. Data analysis:
IC50 values are calculated by plotting the percentage of current inhibition (normalized to the DMSO-only control) as a function of compound concentration using standard data analysis software.
For orientation: IC50 means the concentration that gives 50% inhibition. Consider `O=c1cc(CO)n(-c2c(Cl)cccc2Cl)c2c(Cl)cnc(C(O)CO)c12` (single isomer, unassigned) [Example 83, 8-Chloro-1-(2,6-dichlorophenyl)-5-(1,2-dihydroxyethyl)-2-(hydroxymethyl)-1,6-naphthyridin-4(1H)-one], for which the IC50 is 278 nM.

The compound `O=c1cc(CO)n(-c2c(Cl)cccc2Cl)c2c(Cl)cnc(COC(CO)CO)c12` [Example 88, 8-Chloro-1-(2,6-dichlorophenyl)-5-(((1,3-dihydroxypropan-2-yl)oxy)methyl)-2-(hydroxymethyl)-1,6-naphthyridin-4(1H)-one] returned a concentration for half-maximal inhibition (IC50) of 1230 nM. This IC50 lies about 4.4-fold higher than the previous one.

Compound `Cc1cc(=O)c2c(OCC(O)CO)ncc(C3CC3)c2n1-c1c(Cl)cccc1Cl` (stereo not shown) [Example 52, 8-cyclopropyl-1-(2,6-dichlorophenyl)-5-(2,3-dihydroxypropoxy)-2-methyl-1,6-naphthyridin-4(1H)-one] returned a 50% inhibitory concentration (IC50) of 73 nM.

Consider `Cc1cc(=O)c2c(OCCOCCOCCOCCOCCOCCO)ncc(Cl)c2n1-c1c(Cl)cc(F)cc1Cl` [Example 24, 8-chloro-1-(2,6-dichloro-4-fluorophenyl)-5-((17-hydroxy-3,6,9,12,15-pentaoxaheptadecyl)oxy)-2-methyl-1,6-naphthyridin-4(1H)-one], for which the midpoint of inhibition, the IC50, lay at 253 nM. This IC50 is about 3.5-fold higher than that of the compound before.

The compound `O=c1cc(CO)n(-c2c(Cl)cccc2Cl)c2c(Cl)cnc(CCCO)c12` [Example 74, 8-Chloro-1-(2,6-dichlorophenyl)-2-(hydroxymethyl)-5-(3-hydroxypropyl)-1,6-naphthyridin-4(1H)-one] yielded an IC50 of 69 nM.

On to `Cc1cc(=O)c2c(NCCc3c[nH]cn3)ncc(Cl)c2n1-c1c(Cl)cccc1Cl` [Example 35, 5-((2-(1H-imidazol-4-yl)ethyl)amino)-8-chloro-1-(2,6-dichlorophenyl)-2-methyl-1,6-naphthyridin-4(1H)-one], for which the IC50 is 35 nM.

In turn, `O=c1cc(CO)n(-c2c(Cl)cccc2Cl)c2c(Cl)cnc(CC(O)CO)c12` (stereo not shown) [Example 78, 8-Chloro-1-(2,6-dichlorophenyl)-5-(2,3-dihydroxypropyl)-2-(hydroxymethyl)-1,6-naphthyridin-4(1H)-one] gave an IC50 of 352 nM.

On to `Cc1cc(=O)c2c(OCC(O)CO)ncc(Cl)c2n1-c1c(Cl)cc(C#CC(C)(C)N)cc1Cl` (stereo not shown) [Example 90, 1-(4-(3-Amino-3-methylbut-1-yn-1-yl)-2,6-dichlorophenyl)-8-chloro-5-(2,3-dihydroxypropoxy)-2-methyl-1,6-naphthyridin-4(1H)-one], for which inhibition was half-maximal at 327 nM (IC50).

In the case of `Cc1cc(=O)c2c(NCCOCCOCCOCCO)ncc(Cl)c2n1-c1c(Cl)cccc1Cl` [Example 37, 8-chloro-1-(2,6-dichlorophenyl)-5-((2-(2-(2-(2-hydroxyethoxy)ethoxy)ethoxy)ethyl)amino)-2-methyl-1,6-naphthyridin-4(1H)-one], the 50% inhibitory concentration (IC50) came to 6 nM.

In turn, `O=c1cc(CO)n(-c2c(Cl)cccc2Cl)c2c(Cl)cnc(CC(O)CO)c12` (single isomer, unassigned) [Example 80, 8-Chloro-1-(2,6-dichlorophenyl)-5-(2,3-dihydroxypropyl)-2-(hydroxymethyl)-1,6-naphthyridin-4(1H)-one] had a 50% inhibitory concentration (IC50) of 365 nM.

Compound `O=c1cc(CO)n(-c2c(Cl)cccc2Cl)c2c(Cl)cnc(COCC(O)CO)c12` (stereo not shown) [Example 87, 8-Chloro-1-(2,6-dichlorophenyl)-5-((2,3-dihydroxypropoxy)methyl)-2-(hydroxymethyl)-1,6-naphthyridin-4(1H)-one] came in with a half-maximal inhibitory concentration (IC50) of 2260 nM.

For the compound `O=c1cc(CO)n(-c2c(Cl)cccc2Cl)c2c(Cl)cnc(CC(O)CO)c12` (single isomer, unassigned) [Example 79, 8-Chloro-1-(2,6-dichlorophenyl)-5-(2,3-dihydroxypropyl)-2-(hydroxymethyl)-1,6-naphthyridin-4(1H)-one], inhibition was half-maximal at 299 nM (IC50).

With `COCc1cc(=O)c2c(OCC(CO)CO)ncc(Cl)c2n1-c1c(Cl)cccc1Cl` [Example 53, 8-chloro-1-(2,6-dichlorophenyl)-5-(3-hydroxy-2-(hydroxymethyl)propoxy)-2-(methoxymethyl)-1,6-naphthyridin-4(1H)-one], the IC50 was 28 nM.

Turning to `N#Cc1cc(=O)c2c(OCC(O)CO)ncc(Cl)c2n1-c1c(Cl)cccc1Cl` (stereo not shown) [Example 63, 8-Chloro-1-(2,6-dichlorophenyl)-5-(2,3-dihydroxpropoxy)-4-oxo-1,4-dihydro-1,6-naphthyridine-2-carbonitrile], 16 nM corresponded to half-maximal inhibition (IC50).

As for `Cc1cc(=O)c2c(OCCOCCOCCOCCO)ncc(Cl)c2n1-c1c(Cl)cccc1Cl` [Example 30, 8-chloro-1-(2,6-dichlorophenyl)-5-(2-(2-(2-(2-hydroxyethoxy)ethoxy)ethoxy)ethoxy)-2-methyl-1,6-naphthyridin-4(1H)-one], half-maximal inhibition (IC50) required 25 nM.

In turn, `Cc1cc(=O)c2c(OCCOCCOCCOCCO)ncc(Cl)c2n1-c1c(Cl)cccc1C#N` [Example 21, 3-chloro-2-(8-chloro-5-(2-(2-(2-(2-hydroxyethoxy)ethoxy)ethoxy)ethoxy)-2-methyl-4-oxo-1,6-naphthyridin-1(4H)-yl)benzonitrile] returned an IC50 of 154 nM.

Compound `Cc1cc(=O)c2c(NS(=O)(=O)c3cn[nH]c3)cncc2n1-c1c(Cl)cc(C#N)cc1Cl` [Example 70, N-(1-(2,6-Dichloro-4-cyanophenyl)-2-methyl-4-oxo-1,4-dihydro-1,7-naphthyridin-5-yl)-1H-pyrazole-4-sulfonamide] returned a half-maximal inhibitory concentration (IC50) of 3050 nM. This IC50 lies about 20-fold higher than the previous one.

`COCc1cc(=O)c2c(OCC(O)CO)ncc(Cl)c2n1-c1c(Cl)cccc1Cl` (stereo not shown) [Example 54, 8-chloro-1-(2,6-dichlorophenyl)-5-(2,3-dihydroxypropoxy)-2-(methoxymethyl)-1,6-naphthyridin-4(1H)-one] came in with an IC50 of 29 nM.

Compound `Cc1cc(=O)c2c(-c3cc[nH]n3)cncc2n1-c1c(Cl)cc(C#N)cc1Cl` [Example 72, 3,5-dichloro-4-(2-methyl-4-oxo-5-(1H-pyrazol-3-yl)-1,7-naphthyridin-1(4H)-yl)benzonitrile] had an IC50 of 280 nM. Against the preceding compound, the IC50 is about 9.7-fold higher.

`Cc1cc(=O)c2c(OCCOCCOCCOCCO)ncc(Cl)c2n1-c1c(Cl)cc(F)cc1C#N` [Example 23, 3-chloro-2-(8-chloro-5-(2-(2-(2-(2-hydroxyethoxy)ethoxy)ethoxy)ethoxy)-2-methyl-4-oxo-1,6-naphthyridin-1(4H)-yl)-5-fluorobenzonitrile] registered a concentration for half-maximal inhibition (IC50) of 344 nM.

For `COCCOCCOc1ncc(Cl)c2c1c(=O)cc(CO)n2-c1c(Cl)cccc1Cl` [Example 11, 8-chloro-1-(2,6-dichlorophenyl)-2-(hydroxymethyl)-5-(2-(2-methoxyethoxy)ethoxy)-1,6-naphthyridin-4(1H)-one], the IC50 was found to be 73 nM. Compared with the last compound, the IC50 is about 4.7-fold lower.

On to `Cc1cc(=O)c2c(N3CCN(CCO)CC3)ncc(Cl)c2n1-c1c(Cl)cc(C#N)cc1Cl` [Example 25, 3,5-dichloro-4-(8-chloro-5-(4-(2-hydroxyethyl)piperazin-1-yl)-2-methyl-4-oxo-1,6-naphthyridin-1(4H)-yl)benzonitrile], for which the IC50 is 146 nM.

On to `O=c1cc(CO)n(-c2c(Cl)cccc2Cl)c2c(Cl)cnc(OCC3COC3)c12` [Example 10, 8-chloro-1-(2,6-dichlorophenyl)-2-(hydroxymethyl)-5-(oxetan-3-ylmethoxy)-1,6-naphthyridin-4(1H)-one], for which the midpoint of inhibition, the IC50, lay at 120 nM.

Take `O=c1cc(C(F)F)n(-c2c(Cl)cccc2Cl)c2c(Cl)cnc(OCC(O)CO)c12` (stereo not shown) [Example 62, 8-Chloro-1-(2,6-dichlorophenyl)-2-(difluoromethyl)-5-(2,3-dihydroxypropoxy)-1,6-naphthyridin-4(1H)-one]: the half-maximal inhibitory concentration (IC50) came to 13 nM.

The compound `Cc1cc(=O)c2c(OCC(O)C(O)CO)ncc(Cl)c2n1-c1c(Cl)cccc1Cl` (stereo not shown) [Example 26, 8-chloro-1-(2,6-dichlorophenyl)-2-methyl-5-(2,3,4-trihydroxybutoxy)-1,6-naphthyridin-4(1H)-one] had a half-inhibitory concentration (IC50) of 31 nM. Against the preceding compound, the IC50 is about 2.4-fold higher.
